Patent US10131649B2, “Bicyclic compounds as pest control agents” (BAYER CROPSCIENCE AKTIENGESELLSCHAFT, priority 2014, dated 2018)
Read-outs that look alike come from different tables or passages of the source.

Assays:
[1] = tested on: green peach aphid (Myzus persicae); assay: Myzus persicae spray test (Chinese cabbage leaf discs); assay type: in vivo; conditions: foliar, 144 h, read-out: efficacy in %
Description: Myzus persicae—Spray Test
Solvent: • 78 parts by weight of acetone • 1.5 parts by weight of dimethylformamide
Emulsifier: alkylaryl polyglycol ether
To produce a suitable preparation of active compound, 1 part by weight of active compound is dissolved using the specified parts by weight of solvent and made up with water containing an emulsifier concentration of 1000 ppm until the desired concentration is attained. To produce further test concentrations, the formulation is diluted with emulsifier-containing water.
Discs of Chinese cabbage leaves (Brassica pekinensis) infested by all stages of the green peach aphid (Myzus persicae) are sprayed with an active compound formulation of the desired concentration.
After 6 days, the efficacy in % is determined. 100% means that all the aphids have been killed; 0% means that no aphids have been killed.

[2] = log P by HPLC on reversed-phase columns (OECD Guideline 117), [a] acidic pH 2.7, [b] neutral pH 7.8; assay type: physicochemical; conditions: reversed-phase (C18) HPLC column
Description: The log P values were determined in accordance with OECD Guideline 117 (EC Directive 92/69/EEC) by HPLC (high-performance liquid chromatography) using reversed-phase (RP) columns (C18), by the following methods:
[a] The LC-MS determination in the acidic range is carried out at pH 2.7 with 0.1% aqueous formic acid and acetonitrile (contains 0.1% formic acid) as eluents; linear gradient from 10% acetonitrile to 95% acetonitrile.
[b] LC-MS determination in the neutral range is effected at pH 7.8 with 0.001 molar aqueous ammonium hydrogencarbonate solution and acetonitrile as eluents; linear gradient from 10% acetonitrile to 95% acetonitrile.
Calibration is carried out using unbranched alkan-2-ones (having 3 to 16 carbon atoms) with known log P values (log P values determined on the basis of the retention times by linear interpolation between two successive alkanones).

[3] = acidic pH 2.7, read-out: logP[a]
[4] = neutral pH 7.8, read-out: logP[b]

## CON(C)C(=O)c1ccc2nn(-c3cncnc3)cc2c1 [Example 32]
[1]
  pest or weed control at 500 g/ha: 100%

## CN(C)C(=O)c1ccc2nn(-c3cncc(F)c3)cc2c1 [Example 18]
[1]
  pest or weed control at 500 g/ha: 90%

## Cc1ccc(NC(=O)c2ccc3nn(-c4cccnc4)cc3c2)cc1SCC(F)(F)F [Example 82]
[2]; [3]
  chromatographic logP: 3.22
[2]; [4]
  chromatographic logP: 3.15
[1]
  pest or weed control at 500 g/ha: 90%

## CN(C(=O)CC(C)(F)F)c1ccc2nn(-c3cccnc3)cc2c1 [Example 112]
[1]
  pest or weed control at 500 g/ha: 100%

## CSCC(C)C(=O)N(C)c1ccc2nn(-c3cncc(F)c3)cc2c1 (centres unmarked) [Example 109]
[1]
  pest or weed control at 500 g/ha: 100%

## Cc1ccc(-c2ccc3nn(-c4cccnc4)cc3c2)cc1SCC(F)(F)F [Example 50, 5-[4-Methyl-3-(2,2,2-trifluoroethylsulphanyl)phenyl]-2-(3-pyridyl)indazole]
[2]; [3]
  chromatographic logP: 4.12
[2]; [4]
  chromatographic logP: 4.07
[1]
  pest or weed control at 500 g/ha: 100%

## Cc1cc(C)c(SCC(F)(F)F)cc1NC(=O)c1ccc2nn(-c3cccnc3)cc2c1 [Example 81, N-{2,4-Dimethyl-5-[(2,2,2-trifluoroethyl)sulphanyl]phenyl}-2-(pyridin-3-yl)-2H-indazole-5-carboxamide]
[2]; [3]
  chromatographic logP: 3.15
[2]; [4]
  chromatographic logP: 3.12
[1]
  pest or weed control at 500 g/ha: 90%

## Cc1cc(F)c(NC(=O)c2ccc3nn(-c4cccnc4)cc3c2)cc1[S+]([O-])CC(F)(F)F (centres unmarked) [Example 96]
[2]; [3]
  chromatographic logP: 2.19
[2]; [4]
  chromatographic logP: 2.14
[1]
  pest or weed control at 500 g/ha: 100%

## CN(CC(F)(F)F)C(=O)c1ccc2nn(-c3cccnc3)cc2c1 [Example 90]
[2]; [3]
  chromatographic logP: 1.84
[2]; [4]
  chromatographic logP: 1.87
[1]
  pest or weed control at 500 g/ha: 90%

## CN(C(=O)c1ccc2nn(-c3cccnc3)cc2c1)C1CC1 [Example 75, N-Cyclopropyl-N-methyl-2-(pyridin-3-yl)-2H-indazole-5-carboxamide]
[2]; [3]
  chromatographic logP: 1.47
[2]; [4]
  chromatographic logP: 1.5
[1]
  pest or weed control at 500 g/ha: 90%

## CN(C)C(=O)c1ccc2nn(-c3cncnc3)cc2c1 [Example 27]
[1]
  pest or weed control at 500 g/ha: 90%

## CC(CS(C)(=O)=O)C(=O)N(C)c1ccc2nn(-c3cccnc3)cc2c1 (centres unmarked) [Example 130]
[1]
  pest or weed control at 500 g/ha: 90%

## CCSc1cccnc1-c1ccc2nn(-c3cccnc3)cc2c1 [Example 77]
[2]; [3]
  chromatographic logP: 2.53
[2]; [4]
  chromatographic logP: 1.93
[1]
  pest or weed control at 500 g/ha: 90%

## CN(C(=O)CC(C)(F)F)c1ccc2nn(-c3cncc(F)c3)cc2c1 [Example 113]
[1]
  pest or weed control at 500 g/ha: 90%

## Cc1cc(C)c([S+]([O-])CC(F)(F)F)cc1-c1ccc2nn(-c3cccnc3)cc2c1 (centres unmarked) [Example 54, 5-[2,4-Dimethyl-5-(2,2,2-trifluoroethylsulphinyl)phenyl]-2-(3-pyridyl)indazole]
[2]; [3]
  chromatographic logP: 2.99
[2]; [4]
  chromatographic logP: 2.92
[1]
  pest or weed control at 500 g/ha: 90%

## Cc1cccc(-c2ccc3nn(-c4cccnc4)cc3c2)n1 [Example 64]
[2]; [3]
  chromatographic logP: 1.06
[2]; [4]
  chromatographic logP: 2.41
[1]
  pest or weed control at 500 g/ha: 90%

## Cc1ccc(C(=O)N(C)c2ccc3nn(-c4cnn(C)c4)cc3c2)cc1[S+]([O-])CC(F)(F)F (centres unmarked) [Example 116]
[1]
  pest or weed control at 500 g/ha: 90%

## O=C(NCC(F)(F)F)c1ccc2nn(-c3cncc(F)c3)cc2c1 [Example 19]
[1]
  pest or weed control at 500 g/ha: 90%

## Cc1ccnc(-c2ccc3nn(-c4cccnc4)cc3c2)c1 [Example 66]
[2]; [3]
  chromatographic logP: 0.97
[2]; [4]
  chromatographic logP: 2.2
[1]
  pest or weed control at 500 g/ha: 90%

## O=C(c1ccc2nn(-c3cccnc3)cc2c1)N1CCCC1 [Example 88]
[2]; [3]
  chromatographic logP: 1.43
[2]; [4]
  chromatographic logP: 1.48
[1]
  pest or weed control at 500 g/ha: 100%

## Cc1ccc(NC(=O)c2ccc3nn(-c4cccnc4)cc3c2)cc1[S+]([O-])CC(F)(F)F (centres unmarked) [Example 94, N-{4-Methyl-3-[(2,2,2-trifluoroethyl)sulphinyl]phenyl}-2-(pyridin-3-yl)-2H-indazole-5-carboxamide]
[2]; [3]
  chromatographic logP: 2.23
[2]; [4]
  chromatographic logP: 2.23
[1]
  pest or weed control at 500 g/ha: 90%

## CSCC(C)C(=O)N(C)c1ccc2nn(-c3cnn(C)c3)cc2c1 (centres unmarked) [Example 105, N,2-Dimethyl-N-(2-(1-methyl-1H-pyrazol-4-yl)-2H-indazol-5-yl)-3-(methylthio) propanamide]
[1]; application rate 500 g/ha, after 6 days, Chinese cabbage leaf discs, 100% = all aphids killed
  pest or weed control at 500 g/ha: 90%

## Cn1ccc(-c2ccc3nn(-c4cccnc4)cc3c2)n1 [Example 71]
[2]; [3]
  chromatographic logP: 1.58
[1]
  pest or weed control at 500 g/ha: 90%

## C[S+]([O-])Cn1cc(-c2ccc3nn(-c4cccnc4)cc3c2)cn1 (centres unmarked) [Example 74]
[2]; [3]
  chromatographic logP: 1.17
[2]; [4]
  chromatographic logP: 1.19
[1]
  pest or weed control at 500 g/ha: 100%

## c1cnc(-c2ccc3nn(-c4cccnc4)cc3c2)nc1 [Example 60, 2-(3-Pyridyl)-5-pyrimidin-2-yl-indazole]
[2]; [3]
  chromatographic logP: 1.72
[2]; [4]
  chromatographic logP: 1.73
[1]
  pest or weed control at 500 g/ha: 90%

## Clc1cccc(-c2ccc3nn(-c4cccnc4)cc3c2)n1 [Example 61]
[2]; [3]
  chromatographic logP: 2.79
[2]; [4]
  chromatographic logP: 2.8
[1]
  pest or weed control at 500 g/ha: 100%

## Cc1ccc(-c2ccc3nn(-c4cccnc4)cc3c2)cc1[S+]([O-])CC(F)(F)F (centres unmarked) [Example 53, 5-[4-Methyl-3-(2,2,2-trifluoroethylsulphinyl)phenyl]-2-(3-pyridyl)indazole]
[2]; [3]
  chromatographic logP: 2.72
[2]; [4]
  chromatographic logP: 2.68
[1]
  pest or weed control at 500 g/ha: 90%

## CNC(=O)c1ccc2nn(-c3cncnc3)cc2c1 [Example 31]
[1]
  pest or weed control at 500 g/ha: 90%

## O=C(NCC(F)(F)F)c1ccc2nn(-c3cccnc3)cc2c1 [Example 3]
[1]
  pest or weed control at 500 g/ha: 100%

## CN(C(=O)CCS(C)(=O)=O)c1ccc2nn(-c3cccnc3)cc2c1 [Example 129]
[1]
  pest or weed control at 500 g/ha: 90%

## CCn1cc(-c2ccc3nn(-c4cccnc4)cc3c2)cn1 [Example 73]
[2]; [3]
  chromatographic logP: 1.81
[2]; [4]
  chromatographic logP: 1.82
[1]
  pest or weed control at 500 g/ha: 90%

## O=C(c1ccc2nn(-c3cccnc3)cc2c1)N1CCSCC1 [Example 92]
[2]; [3]
  chromatographic logP: 1.5
[2]; [4]
  chromatographic logP: 1.58
[1]
  pest or weed control at 500 g/ha: 100%

## CC(F)(F)CNC(=O)c1ccc2nn(-c3cncnc3)cc2c1 [Example 33]
[1]
  pest or weed control at 500 g/ha: 100%

## CN(C(=O)CC[S+](C)[O-])c1ccc2nn(-c3cncc(F)c3)cc2c1 (centres unmarked) [Example 121]
[1]
  pest or weed control at 500 g/ha: 100%

## Cc1cc(F)c(-c2ccc3nn(-c4cccnc4)cc3c2)cc1SCC(F)(F)F [Example 49, 5-[2-Fluoro-4-methyl-5-(2,2,2-trifluoroethylsulphanyl)phenyl]-2-(3-pyridyl)indazole]
[2]; [3]
  chromatographic logP: 4.23
[2]; [4]
  chromatographic logP: 4.11
[1]
  pest or weed control at 500 g/ha: 90%

## Cn1cc(-n2cc3cc(C(=O)NCC(F)(F)F)ccc3n2)cn1 [Example 37]
[1]
  pest or weed control at 500 g/ha: 90%

## Cc1cc(F)c(C(=O)N(C)c2ccc3nn(-c4cncc(F)c4)cc3c2)cc1[S+]([O-])CC(F)(F)F (centres unmarked) [Example 118]
[1]
  pest or weed control at 500 g/ha: 90%

## O=C(c1ccc2nn(-c3cccnc3)cc2c1)N1CCOCC1 [Example 87]
[2]; [3]
  chromatographic logP: 1.14
[2]; [4]
  chromatographic logP: 1.16
[1]
  pest or weed control at 500 g/ha: 100%

## Cc1ccc(C(=O)N(C)c2ccc3nn(-c4cccnc4)cc3c2)cc1[S+]([O-])CC(F)(F)F (centres unmarked) [Example 115]
[1]
  pest or weed control at 500 g/ha: 100%

## CCNC(=O)c1ccc2nn(-c3cncnc3)cc2c1 [Example 29]
[1]
  pest or weed control at 100 g/ha: 90%

## CC(C[S+](C)[O-])C(=O)N(C)c1ccc2nn(-c3cncc(F)c3)cc2c1 (centres unmarked) [Example 122]
[1]
  pest or weed control at 500 g/ha: 100%

## CSCCC(=O)N(C)c1ccc2nn(-c3cccnc3)cc2c1 [Example 111]
[1]
  pest or weed control at 500 g/ha: 90%

## CN(C)C(=O)c1ccc2nn(-c3cccnc3)cc2c1 [Example 1]
[1]
  pest or weed control at 500 g/ha: 100%

## CN(C(=O)CCS(C)(=O)=O)c1ccc2nn(-c3cncc(F)c3)cc2c1 [Example 128]
[1]
  pest or weed control at 500 g/ha: 100%

## CSCCC(=O)N(C)c1ccc2nn(-c3cncc(F)c3)cc2c1 [Example 108]
[1]
  pest or weed control at 500 g/ha: 100%

## O=C(NCC(F)F)c1ccc2nn(-c3cncnc3)cc2c1 [Example 30]
[1]
  pest or weed control at 500 g/ha: 100%

## O=C(c1ccc2nn(-c3cccnc3)cc2c1)N1CCS(=O)(=O)CC1 [Example 93]
[2]; [3]
  chromatographic logP: 0.87
[2]; [4]
  chromatographic logP: 1.03

## Cc1ccc(C(=O)N(C)c2ccc3nn(-c4cncc(F)c4)cc3c2)cc1[S+]([O-])CC(F)(F)F (centres unmarked) [Example 114]
[1]
  pest or weed control at 500 g/ha: 90%

## c1cncc(-n2cc3cc(-c4cn[nH]c4)ccc3n2)c1 [Example 98, 5-(1H-Pyrazol-4-yl)-2-(pyridin-3-yl)-2H-indazole]
[2]; [3]
  chromatographic logP: 1.27
[2]; [4]
  chromatographic logP: 1.3

## O=C(NCC(F)(F)F)c1ccc2nn(-c3cncnc3)cc2c1 [Example 26]
[1]
  pest or weed control at 100 g/ha: 90%

## CSCC(C)C(=O)N(C)c1ccc2nn(-c3cccnc3)cc2c1 (centres unmarked) [Example 110]
[1]
  pest or weed control at 500 g/ha: 90%

## CN(C(=O)CC[S+](C)[O-])c1ccc2nn(-c3cccnc3)cc2c1 (centres unmarked) [Example 123]
[1]
  pest or weed control at 500 g/ha: 90%
